# Where two headings read alike, the source gives them in different places.
# How the values were obtained:
# [1] = test system: S. Typhimurium strains TA98, TA100, TA1535 and TA1537 and E. coli strain WP2 uvrA; settings: up to 5,000 μg/plate, ref BioReliance (2013a), cited from earlier work; for Bacterial reverse mutation result: plate incorporation, with and without metabolic activation
# [2] = test system: human peripheral blood lymphocytes (HPBL); settings: ref BioReliance (2013b), cited from earlier work; for Chromosome aberration result (structural aberrations): 4 + 16 h in the absence of S9-mix
# bone marrow of CD-1 mice = settings: positive control, 60 mg/kg bw per day; ref WIL Research (2013a); cited from earlier work
# [3] = Nitrosation rate constant; settings: pH 3.4; estimated from kDMA by correction for the pKa difference
# [4] = test system: bone marrow of Hsd:ICR (CD-1) mice; settings: cited from earlier work; for maximum tolerated dose (MTD): range-finder, oral gavage, ref BioReliance, 2014
# [5] = carcinogenic potential; ref EC SCCS, 2012, EFSA ANS Panel, 2017; cited from earlier work
smiles,measurement,setting,value
"Cl.c1csc(CNc2cc[nH]n2)c1 [S1140, N‐(Thiophen‐2‐ylmethyl)‐1H‐pyrazol‐3‐amine, hydrochloride salt]",Bacterial reverse mutation result,[1],did not show mutagenicity
same,Bacterial reverse mutation result,[1]; hydrochloride salt (M179),Negative ^a
same,precipitate / background lawn toxicity,[1]; two studies,Neither precipitate nor background lawn toxicity was observed in the two studies performed
same,Chromosome aberration result (structural aberrations),[2]; hydrochloride salt (M179),Positive ^e
same,Chromosome aberration result (structural aberrations),[2],induced chromosomal aberrations
same,structural chromosomal aberrations,"[2]; 4 + 16 h treatment in the presence of S9-mix, 100-1,840 μg/mL",No statistically significant or concentration‐related increases in structural chromosomal aberrations
same,polyploidy,[2]; any of the treatment conditions,No statistically significant or concentration‐related increases in polyploidy
"O=P1(N(CCCl)CCCl)NCCCO1 (stereo not drawn) [CP, Cyclophosphamide monohydrate, reference compound]","frequency of MNPCEs, positive control",bone marrow of CD-1 mice,statistically significant increase
"c1csc(CNc2cc[nH]n2)c1 [M179, N‐(thiophen‐2‐ylmethyl)‐1H‐pyrazol‐3‐amine]","rate constant of nitrosation (kM179), estimated",[3],0.0017 × 10^−4 M^−2s^−1
"COS(C)(=O)=O [MMS, methyl methanesulfonate, reference compound]","frequency of MNPCEs, positive control","[4]; positive control, 40 mg/kg bw per day on days 2 and 3, ref BioReliance (2014)",statistically significant increases
"O=S(=O)(O)O.c1csc(CNc2cc[nH]n2)c1.c1csc(CNc2cc[nH]n2)c1 [S2312, hemisulfate salt of N‐(thiophen‐2‐ylmethyl)‐1H‐pyrazol‐3‐amine]",clinical signs observed,"[4]; mice, 125-1,000 mg/kg bw per day, gavage, ref BioReliance (2014)","piloerection (at all dose levels), lethargy (at 500 and 1,000 mg/kg bw per day), prostration, irregular breathing and crusty eyes (at 1,000 mg/kg bw per day in female mice)"
same,mortality,"[4]; mice, any dose level up to 1,000 mg/kg bw per day, ref BioReliance (2014)",No mortality
same,maximum tolerated dose (MTD),[4]; female mice,"1,000 mg/kg bw per day"
same,maximum tolerated dose (MTD),[4]; male mice,500 mg/kg bw per day
"CN(C)N=O [DMNA, dimethylnitrosamine]",BMDL10,[5],27 μg/kg bw per day

# Source: article PMC7009771 (EFSA Journal, 2018)
